Experimental findings from patent US20260265262A1, “CDK2 INHIBITORS AND METHODS OF USING THE SAME” (Cedilla Therapeutics, Inc., priority 2022, published 2026) are described below.

Assay [1] concerns the target CDK2/Cyclin E1 (Homo sapiens, UniProt P24941). Briefly: ADP-Glo Luminescent Kinase Assay (CDK2/E1-37C). It is filed as biochemical. As to conditions: 0.18 nM CDK2/Cyclin E1, 100 μM ATP, 1.5 μM Histone H1, 37° C., 60 min pre-incubation; read-out: ADPGLO (CDK2/E1-37C): IC50. The protocol:
Inhibition of CDK2/Cyclin E1 activity by the presence of small molecules was evaluated using ADP-Glo Luminescent Kinase Assay (Promega). Activated CDK2/Cyclin E1 was incubated with its substrate Histone H1 (SignalChem H10-54N) in the kinase reaction buffer (100 μM ATP, 50 mM HEPES pH 7.5, 10 mM MgCl2, 1 mM EDTA, 2 mM DTT, 0.01% Brij35, 0.5 mg/mL BSA). Luminescence was recorded with an Envision plate reader (PerkinElmer).
Dose titrations of inhibitors in 100% DMSO were combined with 0.36 nM CDK2/Cyclin E1 in reaction buffer. The mixtures were incubated for 60 minutes at 37° C. before the addition of ATP and Histone H1 substrate to initiate the kinase reaction. The final conditions were 0.18 nM CDK2/Cyclin E1, 100 μM ATP, and 1.5 μM Histone H1. The reactions were incubated at 37° C. for 90 minutes before being stopped with the addition of ADP-Glo reagent. This mixture was incubated at room temperature for 60 minutes before Kinase Detection Solution is added to generate luminescence. The stopped reactions were analyzed on an Envision plate reader. The conversion ratios were normalized to yield % activity, plotted against compound concentration, and fit to a four-parameter equation to determine the IC50 for each compound.

Assay [2] relates to Kuramochi cells. Briefly: IncuCyte cell proliferation assay. It is filed as cell-based. The note with it: Kuramochi cells labeled with mApple-H2B, cell count 0 to 72 hours, 20 μM top concentration; read-out: IncuCyte Kuramochi RB-WT: IC50. How it is done:
IncuCyte® assay was used to measure the effect of disclosed compounds on cell proliferation. Fluorescent microscopy images of cells were taken immediately after compound treatment and 72 hours later. Image analysis software was used to obtain cell counts as a function of compound concentration. Kuramochi cells labeled with mApple-H2B were seeded on 384-well assay-ready plates. Plates were placed in an IncuCyte® (Sartorius) and scanned at 0 and 72 hours. IncuCyte® software was used to count the number of fluorescent nuclei in each well. The fold change in cell count from 0 to 72 hours in wells treated with increasing compounds concentrations (10 pts, 1/2 log dilution, 20 μM top concentration) was normalized to DMSO control wells. The normalized cell counts were fit with dose response curves and a […] was calculated.

Bounds are passed on as bounds.

As for `Cc1oc(=O)oc1COC(=O)C(C)(C)CNC(=O)[C@@H](NC(=O)[C@@H]1CN(C(=O)c2cnn(Cc3ccccc3)c2)CC12CN(C(=O)[C@H]1CC1(C)C)C2)[C@@H](C)OCC1CCCCC1` [Example I-32, (5-methyl-2-oxo-1,3-dioxol-4-yl)methyl 3-((2S,3R)-2-((S)-6-(1-benzyl-1H-pyrazole-4-carbonyl)-2-((S)-2,2-dimethylcyclopropane-1-carbonyl)-2,6-diazaspiro[3.4]octane-8-carboxamido)-3-(cyclohexylmethoxy)butanamido)-2,2-dimethylpropanoate], the IC50 in assay [1] was under 0.5 µM; in assay [2] it was 5 to 20 µM.
`C[C@@H](OCC1CCCCC1)[C@H](NC(=O)[C@@H]1CN(C(=O)c2cnn(Cc3ccccc3)c2)CC12CN(C(=O)[C@H]1CC1(C)C)C2)C(=O)NCCC(=O)NS(C)(=O)=O` [Example I-33, (S)-6-(1-benzyl-1H-pyrazole-4-carbonyl)-N-((2S,3R)-3-(cyclohexylmethoxy)-1-((3-(methylsulfonamido)-3-oxopropyl)amino)-1-oxobutan-2-yl)-2-((S)-2,2-dimethylcyclopropane-1-carbonyl)-2,6-diazaspiro[3.4]octane-8-carboxamide]: the IC50 in assay [1] was under 0.5 µM; in assay [2], over 20 µM.
Regarding `C[C@@H](OCC12CCC(CC1)OC2)[C@H](NC(=O)[C@@H]1CN(C(=O)c2cncs2)CC12CN(C(=O)C1(C(F)(F)F)CC1)C2)C(=O)N1CCC(c2nccs2)CC1` [Example I-34, (S)—N-((2S,3R)-3-((2-oxabicyclo[2.2.2]octan-4-yl)methoxy)-1-oxo-1-(4-(thiazol-2-yl)piperidin-1-yl)butan-2-yl)-6-(thiazole-5-carbonyl)-2-(1-(trifluoromethyl)cyclopropane-1-carbonyl)-2,6-diazaspiro[3.4]octane-8-carboxamide], the IC50 in assay [1] was under 0.5 µM; in assay [2] it was 0.5 to 5 µM.
As for `C[C@@H](OCC1CCCCC1)[C@H](NC(=O)[C@@H]1CN(C(=O)c2cnn(Cc3ccccc3)c2)CC12CN(C(=O)[C@H]1CC1(C)C)C2)C(=O)N1CCCC[C@@H]1C(=O)O` [Example I-35], the IC50 in assay [1] is under 0.5 µM; in assay [2] it was over 20 µM.
Turning to `C[C@@H](OCC1CCCCC1)[C@H](NC(=O)[C@@H]1CN(C(=O)c2cnn(Cc3ccccc3)c2)CC12CN(C(=O)[C@H]1CC1(C)C)C2)C(=O)N1CCCC[C@H]1C(=O)O` [Example I-36, (S)-1-(N—((S)-6-(1-benzyl-1H-pyrazole-4-carbonyl)-2-((S)-2,2-dimethylcyclopropane-1-carbonyl)-2,6-diazaspiro[3.4]octane-8-carbonyl)-O-(cyclohexylmethyl)-L-threonyl)piperidine-2-carboxylic acid], the IC50 in assay [1] was under 0.5 µM; in assay [2], over 20 µM.
In the case of `CNC(=O)C(C)(C)CNC(=O)[C@@H](NC(=O)[C@@H]1CN(C(=O)c2cnn(Cc3ccccc3)c2)CC12CN(C(=O)[C@H]1CC1(C)C)C2)[C@@H](C)OCC1CCCCC1` [Example I-37, (S)-6-(1-benzyl-1H-pyrazole-4-carbonyl)-N-((2S,3R)-3-(cyclohexylmethoxy)-1-((2,2-dimethyl-3-(methylamino)-3-oxopropyl)amino)-1-oxobutan-2-yl)-2-((S)-2,2-dimethylcyclopropane-1-carbonyl)-2,6-diazaspiro[3.4]octane-8-carboxamide], the IC50 is under 0.5 µM in assay [1] and 5 to 20 µM in assay [2].
`CNC(=O)[C@@H](NC(=O)[C@@H]1CN(C(=O)c2cncs2)CC12CN(CC1CCCO1)C2)[C@@H](C)OCC12CCC(CC1)OC2` (stereo partly shown) [Example I-48]: the IC50 in assay [1] was 5 to 10 µM; in assay [2] it was over 20 µM.
Consider `C[C@@H](OCC12CCC(CC1)OC2)[C@H](NC(=O)[C@@H]1CN(C(=O)c2cnn(Cc3ccccc3C(=O)O)c2)CC12CN(C(=O)C1(C(F)(F)F)CC1)C2)C(=O)N1CCC2(CCNCC2)CC1` [Example I-60, 2-((4-((S)-8-(((2S,3R)-3-((2-oxabicyclo[2.2.2]octan-4-yl)methoxy)-1-oxo-1-(3,9-diazaspiro[5.5]undecan-3-yl)butan-2-yl)carbamoyl)-2-(1-(trifluoromethyl)cyclopropane-1-carbonyl)-2,6-diazaspiro[3.4]octane-6-carbonyl)-1H-pyrazol-1-yl)methyl)benzoic acid], for which the IC50 in assay [1] is under 0.5 µM; in assay [2] it was 0.5 to 5 µM.
The matching figures for `C[C@@H](OCC12CCC(CC1)OC2)[C@H](NC(=O)[C@@H]1CN(C(=O)c2cnc(O)cn2)CC12CN(C(=O)C1(C(F)(F)F)CC1)C2)C(=O)N1CCC(c2ccc(C(F)(F)F)c(C(=O)O)c2)CC1` [Example I-63]: under 0.5 µM and over 20 µM.
On to `C[C@@H](OCC1(C(F)(F)F)CC1)[C@H](NC(=O)[C@@H]1CN(C(=O)c2cnn(Cc3ccc(C(F)(F)F)cc3)c2)CC12CN(C(=O)C1(C(F)(F)F)CC1)C2)C(=O)N1CCC(c2ccc(C(=O)O)cc2)CC1` [Example I-68, 4-(1-(N—((S)-6-(1-(4-(trifluoromethyl)benzyl)-1H-pyrazole-4-carbonyl)-2-(1-(trifluoromethyl)cyclopropane-1-carbonyl)-2,6-diazaspiro[3.4]octane-8-carbonyl)-O-((1-(trifluoromethyl)cyclopropyl)methyl)-L-threonyl)piperidin-4-yl)benzoic acid], for which the IC50 in assay [1] was 0.5 to 5 µM; in assay [2], over 20 µM.
`C[C@@H](OCC12CCC(CC1)OC2)[C@H](NC(=O)[C@@H]1CN(C(=O)c2cnn(Cc3ccccc3)c2)CC12CN(C(=O)C1(C(F)(F)F)CC1)C2)C(=O)N1CCC(c2nccs2)CC1` [Example I-69, (S)—N-((2S,3R)-3-(2-oxabicyclo[2.2.2]octan-4-ylmethoxy)-1-oxo-1-(4-(thiazol-2-yl)piperidin-1-yl)butan-2-yl)-6-(1-benzyl-1H-pyrazole-4-carbonyl)-2-(1-(trifluoromethyl)cyclopropanecarbonyl)-2,6-diazaspiro[3.4]octane-8-carboxamide]: the IC50 in assay [1] is under 0.5 µM; in assay [2], 0.5 to 5 µM.
`CC1(C)C[C@@H]1C(=O)N1CC2(CN(C(=O)c3cncs3)C[C@H]2C(=O)N2CCC[C@@H](N(CC(=O)NS(C)(=O)=O)CC3CCCCC3)C2)C1` [Example I-70, 2-((cyclohexylmethyl)((R)-1-((S)-2-((S)-2,2-dimethylcyclopropane-1-carbonyl)-6-(thiazole-5-carbonyl)-2,6-diazaspiro[3.4]octane-8-carbonyl)piperidin-3-yl)amino)-N-(methylsulfonyl)acetamide]: the IC50 was over 10 µM in assay [1] and over 20 µM in assay [2].
Take `CC1(C)C[C@@H]1C(=O)N1CC2(CN(C(=O)c3cncs3)C[C@H]2C(=O)N2CCC[C@@H](N(CC(=O)O)CC3CCCCC3)C2)C1` [Example I-71]: the IC50 in assay [1] was over 10 µM; in assay [2], over 20 µM.
`CC1(C)C[C@@H]1C(=O)N1CC2(CN(C(=O)c3cncs3)C[C@H]2C(=O)N2CCC[C@H](N(CC(=O)NS(C)(=O)=O)CC3CCCCC3)C2)C1` [Example I-72, 2-((cyclohexylmethyl)((S)-1-((S)-2-((S)-2,2-dimethylcyclopropane-1-carbonyl)-6-(thiazole-5-carbonyl)-2,6-diazaspiro[3.4]octane-8-carbonyl)piperidin-3-yl)amino)-N-(methylsulfonyl)acetamide]: the IC50 is over 10 µM in assay [1] and over 20 µM in assay [2].
As for `C[C@@H](OCC12CCC(CC1)OC2)[C@H](NC(=O)[C@@H]1CN(C(=O)c2cnn(Cc3ccc(C(F)(F)F)cc3)c2)CC12CN(C(=O)C1(C(F)(F)F)CC1)C2)C(=O)NCCC(=O)NS(C)(=O)=O` [Example I-73, (S)—N-((2S,3R)-3-((2-oxabicyclo[2.2.2]octan-4-yl)methoxy)-1-((3-(methylsulfonamido)-3-oxopropyl)amino)-1-oxobutan-2-yl)-6-(1-(4-(trifluoromethyl)benzyl)-1H-pyrazole-4-carbonyl)-2-(1-(trifluoromethyl)cyclopropane-1-carbonyl)-2,6-diazaspiro[3.4]octane-8-carboxamide], the IC50 is 5 to 10 µM in assay [1] and over 20 µM in assay [2].
As to `CCOC(=O)CN(CC1CCCCC1)[C@H]1CCCN(C(=O)[C@@H]2CN(C(=O)c3cncs3)CC23CN(C(=O)[C@H]2CC2(C)C)C3)C1` [Example I-74], the IC50 is 5 to 10 µM in assay [1] and over 20 µM in assay [2].
Turning to `C[C@@H](OCC12CCC(CC1)OC2)[C@H](NC(=O)[C@@H]1CN(C(=O)c2cnn(Cc3ccc(C(F)(F)F)cc3)c2)CC12CN(C(=O)C1(C(F)(F)F)CC1)C2)C(=O)NCCC(=O)O` [Example I-75], the IC50 in assay [1] is 5 to 10 µM; in assay [2] it was over 20 µM.
